Source: patent US9365541B2, “Compounds for use in the treatment of parasitic diseases” (IRBM—SCIENCE PARK S.P.A., priority 2012, dated 2016)

What was measured:
[1] = biological target: T1, human HDAC1 (Homo sapiens, UniProt Q13547); experiment: Homo sapiens HDAC1 inhibition assay (Fluor-de-Lys, enzymatic); type: biochemical; details: human HDAC enzymatic assay; read-out: hHDAC IC50
T1 construct: made in house; host or cells: HeLa (ATCC CCL-2), mammalian cells
Outline: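 Fluorogenic deacetylation read-out: trypsin developer, supplemented with 2 μM final TSA as stop, releases fluorophore from deacetylated substrate.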

[2] = system: Plasmodium falciparum 3D7; experiment: P. falciparum growth inhibition assay (Pf-LDH); type: cell-based; details: Plasmodium falciparum, Erythrocyte; P. falciparum 3D7 infected erythrocytes, 72 h incubation, PfLDH readout
Outline: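 Compounds were tested against 72 h cultures of the 3D7 strain (0.25% parasitemia, 2% hematocrit, 37° C, low-oxygen gas). Parasite growth was quantified as lactate dehydrogenase activity via NBT reduction, absorbance 650 nm, after freezing and thawing.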

T1 sequence (Q13547 whole entry): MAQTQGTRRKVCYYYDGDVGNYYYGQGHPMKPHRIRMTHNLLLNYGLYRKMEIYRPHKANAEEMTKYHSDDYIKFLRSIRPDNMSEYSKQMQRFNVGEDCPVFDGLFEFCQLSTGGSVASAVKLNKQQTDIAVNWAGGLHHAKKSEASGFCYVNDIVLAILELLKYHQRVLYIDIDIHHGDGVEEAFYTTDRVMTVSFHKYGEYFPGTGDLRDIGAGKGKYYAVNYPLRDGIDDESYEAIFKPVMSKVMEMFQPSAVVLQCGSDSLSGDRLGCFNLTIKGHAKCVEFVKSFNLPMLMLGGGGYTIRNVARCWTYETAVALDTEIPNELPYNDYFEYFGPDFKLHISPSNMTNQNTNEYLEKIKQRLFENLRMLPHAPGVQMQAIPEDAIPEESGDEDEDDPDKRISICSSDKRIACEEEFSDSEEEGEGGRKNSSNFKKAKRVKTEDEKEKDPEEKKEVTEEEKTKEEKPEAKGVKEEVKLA

## CNC(=O)CCCCC[C@H](NC(=O)CN(C)C)c1ncc(-c2cc3ccccc3nc2OC)[nH]1 [Entry 179, (S)-7-(2-(dimethyl-amino)acetamido)-7-(5-(2-methoxyquinolin-3-yl)-1H-imidazol-2-yl)-N-methylheptanamide]
[1]
  IC50: 1000 to 5000 nM
[2]
  EC50: > 5000 nM

## CNC(=O)CCCCC[C@H](NC(=O)CCc1cnn(C)c1)c1ncc(-c2ccc3ccccc3c2)[nH]1 [Entry 199, (S)-N-methyl-7-(3-(1-methyl-1H-pyrazol-4-yl)propanamido)-7-(5-(naphthalen-2-yl)-1H-imidazol-2-yl)heptanamide]
[1]
  IC50: < 1000 nM
[2]
  EC50: 1000 to 5000 nM

## CNC(=O)CCCCC[C@H](NC(=O)Cn1cc2ccccc2n1)c1ncc(-c2ccc3ccncc3c2)[nH]1 [Entry 208, (S)-7-(2-(2H-indazol-2-yl)acetamido)-7-(5-(isoquinolin-7-yl)-1H-imidazol-2-yl)-N-methyl-heptanamide]
[1]
  IC50: < 1000 nM
[2]
  EC50: < 1000 nM

## CNC(=O)CCCCC[C@H](NC(=O)c1cc(-c2ccco2)n[nH]1)c1ncc(-c2ccc3ccccc3c2)[nH]1 [Entry 86, (S)-3-(furan-2-yl)-N-(7-(methylamino)-1-(5-(naphthalen-2-yl)-1H-imidazol-2-yl)-7-oxoheptyl)-1H-pyrazole-5-carboxamide]
[1]
  IC50: 1000 to 5000 nM
[2]
  EC50: 1000 to 5000 nM

## CNC(=O)CCCCC[C@H](NC(=O)c1cncs1)c1ncc(-c2ccc3cc(OC)ncc3c2)[nH]1 [Entry 105, (S)-N-(1-(5-(3-methoxyisoquinolin-7-yl)-1H-imidazol-2-yl)-7-(methylamino)-7-oxoheptyl)thiazole-5-carboxamide]
[1]
  IC50: < 1000 nM
[2]
  EC50: < 1000 nM

## CNC(=O)CCCCC[C@H](NC(=O)CC1=CSC2=NCCCN12)c1ncc(-c2ccc(-c3ccn(C)n3)cc2)[nH]1 [Entry 92, (S)-7-(2-(6,7-dihydro-5H-thiazolo[3,2-a]pyrimidin-3-yl)acetamido)-N-methyl-7-(5-(4-(1-methyl-1H-pyrazol-3-yl)phenyl)-1H-imidazol-2-yl)heptanamide]
[1]
  IC50: 1000 to 5000 nM
[2]
  EC50: > 5000 nM

## CNC(=O)CCCCC[C@H](NC(=O)c1cncs1)c1ncc(-c2ccc(-c3cccs3)cc2)[nH]1 [Entry 109, (S)-N-(7-(methylamino)-7-oxo-1-(5-(4-(thiophen-2-yl)phenyl)-1H-imidazol-2-yl)heptyl)thiazole-5-carboxamide]
[1]
  IC50: 1000 to 5000 nM
[2]
  EC50: 1000 to 5000 nM

## CNC(=O)CCCCC[C@H](NC(=O)c1cncs1)c1ncc(-c2ccc3ncccc3c2)[nH]1 [Entry 127, (S)-N-(7-(methylamino)-7-oxo-1-(5-(quinolin-6-yl)-1H-imidazol-2-yl)heptyl)thiazole-5-carboxamide]
[1]
  IC50: 1000 to 5000 nM
[2]
  EC50: < 1000 nM

## CNC(=O)CCCCC[C@H](NC(=O)c1nc2ncccn2n1)c1ncc(-c2ccc3ccccc3c2)[nH]1 [Entry 43, (S)-N-(7-(methylamino)-1-(5-(naphthalen-2-yl)-1H-imidazol-2-yl)-7-oxoheptyl)-[1,2,4]triazolo[1,5-a]pyrimidine-2-carboxamide]
[1]
  IC50: 1000 to 5000 nM
[2]
  EC50: > 5000 nM

## CNC(=O)CCCCC[C@H](NC(=O)Cc1c(C)[nH]c2ccc(OC)cc12)c1nnc(-c2ccc3ccccc3c2)[nH]1 [Entry 148, (S)-7-(2-(5-methoxy-2-methyl-1H-indol-3-yl)acetamido)-N-methyl-7-(5-(naphthalen-2-yl)-4H-1,2,4-triazol-3-yl)heptanamide]
[1]
  IC50: < 1000 nM
[2]
  EC50: < 1000 nM

## CNC(=O)CCCCC[C@H](NC(=O)Cc1ccccn1)c1ncc(-c2cc3ccccc3nc2OC)[nH]1 [Entry 106]
[1]
  IC50: 1000 to 5000 nM
[2]
  EC50: > 5000 nM

## CNC(=O)CCCCC[C@H](NC(=O)c1cncs1)c1ncc(-c2ccc3c(ccn3C)c2)[nH]1 [Entry 132, (S)-N-(1-(5-(1-methyl-1H-indol-5-yl)-1H-imidazol-2-yl)-7-(methylamino)-7-oxoheptyl)thiazole-5-carboxamide]
[1]
  IC50: < 1000 nM
[2]
  EC50: < 1000 nM

## CNC(=O)CCCCC[C@H](NC(=O)Cc1nc(-c2ccccc2)cs1)c1ncc(-c2ccc3ccccc3c2)[nH]1 [Entry 63]
[1]
  IC50: 1000 to 5000 nM
[2]
  EC50: 1000 to 5000 nM

## CNC(=O)CCCCC[C@H](NC(=O)Cn1ccnn1)c1ncc(-c2ccc3ccncc3c2)[nH]1 [Entry 58, (S)-7-(2-(1H-1,2,3-triazol-1-yl)acetamido)-7-(5-(isoquinolin-7-yl)-1H-imidazol-2-yl)-N-methylheptanamide]
[1]
  IC50: 1000 to 5000 nM
[2]
  EC50: 1000 to 5000 nM

## CNC(=O)CCCCC[C@H](NC(=O)c1cncs1)c1ncc(-c2cc3ccccc3s2)[nH]1 [Entry 51, (S)-N-(1-(5-(benzo[b]thiophen-2-yl)-1H-imidazol-2-yl)-7-(methylamino)-7-oxoheptyl)thiazole-5-carboxamide]
[1]
  IC50: 1000 to 5000 nM
[2]
  EC50: 1000 to 5000 nM

## CNC(=O)CCCCC[C@H](NC(=O)c1cncs1)c1ncc(-c2ccc(-n3cccn3)cc2)[nH]1 [Entry 172, (S)-N-(1-(5-(4-(1H-pyrazol-1-yl)phenyl)-1H-imidazol-2-yl)-7-(methylamino)-7-oxoheptyl)thiazole-5-carboxamide]
[1]
  IC50: 1000 to 5000 nM
[2]
  EC50: < 1000 nM

## CNC(=O)CCCCC[C@H](NC(=O)C1(F)CCN(C)CC1)c1ncc(-c2ccc3ccncc3c2)[nH]1 [Entry 111, (S)-4-fluoro-N-(1-(5-(isoquinolin-7-yl)-1H-imidazol-2-yl)-7-(methylamino)-7-oxoheptyl)-1-methylpiperidine-4-carboxamide]
[1]
  IC50: 1000 to 5000 nM
[2]
  EC50: > 5000 nM

## CNC(=O)CCCCC[C@H](NC(=O)CCN1CCOCC1)c1ncc(-c2cc3ccccc3nc2OC)[nH]1 [Entry 130]
[1]
  IC50: > 5000 nM
[2]
  EC50: 1000 to 5000 nM

## CNC(=O)CCCCC[C@H](NC(=O)C1CCN(C)CC1)c1ncc(-c2ccc3ccccc3c2)[nH]1 [Entry 5, (S)-1-methyl-N-(7-(methylamino)-1-(5-(naphthalen-2-yl)-1H-imidazol-2-yl)-7-oxo-heptyl)piperidine-4-carboxamide]
[1]
  IC50: < 1000 nM
[2]
  EC50: 1000 to 5000 nM

## CNC(=O)CCCCC[C@H](NC(=O)c1ccc(N2CC(=O)NC2=O)cc1)c1ncc(-c2cc3ccccc3nc2OC)[nH]1 [Entry 183, (S)-4-(2,4-dioxoimidazolidin-1-yl)-N-(1-(5-(2-methoxyquinolin-3-yl)-1H-imidazol-2-yl)-7-(methylamino)-7-oxoheptyl)benzamide]
[1]
  IC50: 1000 to 5000 nM
[2]
  EC50: 1000 to 5000 nM

## CNC(=O)CCCCC[C@H](NS(=O)(=O)c1ccc(C#N)cc1)c1ncc(-c2cc3ccccc3nc2OC)[nH]1 [Entry 220]
[1]
  IC50: < 1000 nM
[2]
  EC50: < 1000 nM

## CNC(=O)CCCCC[C@H](NC(=O)c1cccc(N2CCOCC2)c1)c1ncc(-c2ccc3ccccc3c2)[nH]1 [Entry 64, (S)-N-(7-(methylamino)-1-(5-(naphthalen-2-yl)-1H-imidazol-2-yl)-7-oxoheptyl)-3-morpholino-benzamide]
[1]
  IC50: > 5000 nM
[2]
  EC50: 1000 to 5000 nM

## CNC(=O)CCCCC[C@H](NC(=O)c1ccc(-n2cnnn2)cc1)c1ncc(-c2ccc3ccccc3c2)[nH]1 [Entry 117, (S)-N-(7-(methylamino)-1-(5-(naphthalen-2-yl)-1H-imidazol-2-yl)-7-oxoheptyl)-4-(1H-tetrazol-1-yl)benzamide]
[1]
  IC50: 1000 to 5000 nM
[2]
  EC50: 1000 to 5000 nM

## COc1ccc2[nH]c(C)c(CC(=O)N[C@@H](CCCCCC(N)=O)c3nnc(-c4ccc5ccccc5c4)[nH]3)c2c1 [Entry 70, (S)-7-(2-(5-methoxy-2-methyl-1H-indol-3-yl)acetamido)-7-(5-(naphthalen-2-yl)-4H-1,2,4-triazol-3-yl)heptanamide]
[1]
  IC50: < 1000 nM
[2]
  EC50: < 1000 nM

## CNC(=O)CCCCC[C@H](NC(=O)c1cnn(C)c1)c1ncc(-c2ccc(-c3ccn(C)n3)cc2)o1 [Entry 224, (S)-1-methyl-N-(1-(5-(4-(1-methyl-1H-pyrazol-3-yl)phenyl)oxazol-2-yl)-7-(methylamino)-7-oxoheptyl)-1H-pyrazole-4-carboxamide]
[1]
  IC50: > 5000 nM
[2]
  EC50: 1000 to 5000 nM

## CNC(=O)CCCCC[C@H](NC(=O)c1ccc(N2CC(=O)NC2=O)cc1)c1ncc(-c2ccc3ccccc3c2)[nH]1 [Entry 41, (S)-4-(2,4-dioxoimidazolidin-1-yl)-N-(7-(methylamino)-1-(5-(naphthalen-2-yl)-1H-imidazol-2-yl)-7-oxo-heptyl)benzamide]
[1]
  IC50: 1000 to 5000 nM
[2]
  EC50: < 1000 nM

## CNC(=O)CCCCC[C@H](NC(=O)c1cncs1)c1ncc(-c2ccc3[nH]nnc3c2)[nH]1 [Entry 112, (S)-N-(1-(5-(1H-benzo[d][1,2,3]triazol-5-yl)-1H-imidazol-2-yl)-7-(methylamino)-7-oxoheptyl)thiazole-5-carboxamide]
[1]
  IC50: > 5000 nM
[2]
  EC50: > 5000 nM

## CNC(=O)CCCCC[C@H](NC(=O)Cn1ccnn1)c1ncc(-c2ccc3[nH]ncc3c2)[nH]1 [Entry 157, (S)-7-(2-(1H-1,2,3-triazol-1-yl)acetamido)-7-(5-(1H-indazol-5-yl)-1H-imidazol-2-yl)-N-methyl-heptanamide]
[1]
  IC50: > 5000 nM
[2]
  EC50: > 5000 nM

## CNC(=O)CCCCC[C@H](NC(=O)c1ccc2cnccc2c1)c1ncc(-c2ccc3ccccc3c2)[nH]1 [Entry 114, (S)-N-(7-(methylamino)-1-(5-(naphthalen-2-yl)-1H-imidazol-2-yl)-7-oxo-heptyl)isoquinoline-6-carboxamide]
[1]
  IC50: 1000 to 5000 nM
[2]
  EC50: 1000 to 5000 nM

## CNC(=O)CCCCC[C@H](NC(=O)Cn1c(=O)oc2ccccc21)c1ncc(-c2ccc3ccccc3c2)[nH]1 [Entry 74]
[1]
  IC50: < 1000 nM
[2]
  EC50: 1000 to 5000 nM

## CNC(=O)CCCCC[C@H](NC(=O)c1cncs1)c1ncc(-c2ccc(-c3ccncc3)cc2)[nH]1 [Entry 29, (S)-N-(7-(methylamino)-7-oxo-1-(5-(4-(pyridin-4-yl)phenyl)-1H-imidazol-2-yl)heptyl)thiazole-5-carboxamide]
[1]
  IC50: 1000 to 5000 nM
[2]
  EC50: 1000 to 5000 nM
